According to patent publication US20040106590A1, “Methods and reagents for treating infections of clostridium difficile and diseases associated therewith” (priority 2002, published 2004):
In brackets after ≈: the same amount, converted by molar mass.

Legend:
Type in all cases: cell-based
[1] = test system: C. difficile; assay: MIC by agar dilution (NCCLS M11-A5) on C. difficile strains; conditions: for MIC: Clostridioides difficile; for susceptibility of strains: Strains 80 and 29-5-30
[2] = test system: B. frag 25285; assay: MIC by agar dilution, QC organism B. frag 25285; conditions: QC B. frag 25285, 48 h anaerobic
[3] = test system: B. theta 29741; assay: MIC by agar dilution, QC organism B. theta 29741; conditions: QC B. theta 29741, 48 h anaerobic
[4] = ATCC43255, Sample 31, QC C. diff ATCC 43255
[5] = Sample 23, C. difficile 11-5-03
[6] = Sample 24, C. difficile 13-5-03
[7] = Sample 25, C. difficile 14-5-03
[8] = Sample 26, C. difficile 16-5-03
[9] = Sample 27, C. difficile 17-5-03
[10] = Sample 28, C. difficile 19-5-03
[11] = Sample 29, C. difficile 22-5-03
[12] = Sample 30, C. difficile 29-5-03

Structure (SMILES) | MIC [1, 4] | MIC ([1]; Sample 1, C. difficile 18) | MIC ([1]; Sample 2, C. difficile 22) | MIC ([1]; Sample 3, C. difficile 28) | MIC ([1]; Sample 4, C. difficile 40) | MIC ([1]; Sample 5, C. difficile 44) | MIC ([1]; Sample 6, C. difficile 50) | MIC ([1]; Sample 7, C. difficile 60) | MIC ([1]; Sample 8, C. difficile 70) | MIC ([1]; Sample 9, C. difficile 80) | MIC ([1]; Sample 10, C. difficile 101) | MIC ([1]; Sample 11, C. difficile 107) | MIC ([1]; Sample 12, C. difficile 113) | MIC ([1]; Sample 13, C. difficile 116) | MIC ([1]; Sample 14, C. difficile 143) | MIC ([1]; Sample 15, C. difficile 146) | MIC ([1]; Sample 16, C. difficile 154) | MIC ([1]; Sample 17, C. difficile 166) | MIC ([1]; Sample 18, C. difficile 199) | MIC ([1]; Sample 19, C. difficile 65C) | further results
CO[C@H]1/C=C/O[C@@]2(C)Oc3c(C)c(O)c4c(=O)c(c5oc6cc(N7CCN(CC(C)C)CC7)cc(O)c6nc-5c4c3C2=O)NC(=O)/C(C)=C\C=C\[C@H](C)[C@H](O)[C@@H](C)[C@@H](O)[C@@H](C)[C@H](OC(C)=O)[C@@H]1C [ABI1648, 3′-hydroxy-5′-(4-isobutyl-1-piperazinyl) benzoxazinorifamycin] | 0.002 µg/mL (≈ 0.00213 µM) | 0.001 µg/mL (≈ 0.00106 µM) | 0.001 µg/mL (≈ 0.00106 µM) | 0.002 µg/mL (≈ 0.00213 µM) | 0.001 µg/mL (≈ 0.00106 µM) | 0.001 µg/mL (≈ 0.00106 µM) | 0.002 µg/mL (≈ 0.00213 µM) | 0.002 µg/mL (≈ 0.00213 µM) | 0.001 µg/mL (≈ 0.00106 µM) | > 20.5 µg/mL | 0.004 µg/mL (≈ 0.00425 µM) | 0.001 µg/mL (≈ 0.00106 µM) | 0.004 µg/mL (≈ 0.00425 µM) | 0.002 µg/mL (≈ 0.00213 µM) | ≤ 0.0005 µg/mL | 0.001 µg/mL (≈ 0.00106 µM) | ≤ 0.0005 µg/mL | 0.001 µg/mL (≈ 0.00106 µM) | ≤ 0.0005 µg/mL | 0.002 µg/mL (≈ 0.00213 µM) | MIC ([1]; Sample 20, C. difficile 5-5-03): 0.002 µg/mL (≈ 0.00213 µM); MIC ([1]; Sample 21, C. difficile 6-5-03): 0.002 µg/mL (≈ 0.00213 µM); MIC ([1]; Sample 22, C. difficile 7-5-03): 0.002 µg/mL (≈ 0.00213 µM); MIC [1, 5]: 0.001 µg/mL (≈ 0.00106 µM); MIC [1, 6]: ≤ 0.0005 µg/mL; MIC [1, 7]: 0.001 µg/mL (≈ 0.00106 µM); MIC [1, 8]: 0.008 µg/mL (≈ 0.0085 µM); MIC [1, 9]: 0.002 µg/mL (≈ 0.00213 µM); MIC [1, 10]: 0.002 µg/mL (≈ 0.00213 µM); MIC [1, 11]: 0.001 µg/mL (≈ 0.00106 µM); MIC [1, 12]: > 0.5 µg/mL; susceptibility of strains [1]: less susceptible; effectiveness compared with metronidazole ([1]; against almost all 31 strains of C. difficile): much more effective than metronidazole; MIC [2]: 0.03 µg/mL (≈ 0.0319 µM); MIC [3]: 0.03 µg/mL (≈ 0.0319 µM)
Cc1ncc([N+](=O)[O-])n1CCO [Metronidazole, metronidazole, reference compound] | 0.5 µg/mL (≈ 2.92 µM) | 0.5 µg/mL (≈ 2.92 µM) | 0.5 µg/mL (≈ 2.92 µM) | 0.5 µg/mL (≈ 2.92 µM) | 0.5 µg/mL (≈ 2.92 µM) | 0.5 µg/mL (≈ 2.92 µM) | 0.5 µg/mL (≈ 2.92 µM) | 0.5 µg/mL (≈ 2.92 µM) | 0.25 µg/mL (≈ 1.46 µM) | 0.5 µg/mL (≈ 2.92 µM) | 0.5 µg/mL (≈ 2.92 µM) | 0.5 µg/mL (≈ 2.92 µM) | 0.5 µg/mL (≈ 2.92 µM) | 0.25 µg/mL (≈ 1.46 µM) | 0.5 µg/mL (≈ 2.92 µM) | 0.5 µg/mL (≈ 2.92 µM) | 0.25 µg/mL (≈ 1.46 µM) | 0.5 µg/mL (≈ 2.92 µM) | 0.25 µg/mL (≈ 1.46 µM) | 0.5 µg/mL (≈ 2.92 µM) | MIC ([1]; Sample 20, C. difficile 5-5-03): 0.5 µg/mL (≈ 2.92 µM); MIC ([1]; Sample 21, C. difficile 6-5-03): 0.5 µg/mL (≈ 2.92 µM); MIC ([1]; Sample 22, C. difficile 7-5-03): 0.25 µg/mL (≈ 1.46 µM); MIC [1, 5]: 0.5 µg/mL (≈ 2.92 µM); MIC [1, 6]: 0.5 µg/mL (≈ 2.92 µM); MIC [1, 7]: 0.5 µg/mL (≈ 2.92 µM); MIC [1, 8]: 0.5 µg/mL (≈ 2.92 µM); MIC [1, 9]: 0.25 µg/mL (≈ 1.46 µM); MIC [1, 10]: 0.5 µg/mL (≈ 2.92 µM); MIC [1, 11]: 0.25 µg/mL (≈ 1.46 µM); MIC [1, 12]: 0.5 µg/mL (≈ 2.92 µM); susceptibility of strains [1]: less susceptible; MIC [2]: 1 µg/mL (≈ 5.84 µM); MIC [3]: 2 µg/mL (≈ 11.7 µM)
